From patent publication US6337417B1, “N-phenyltetrahydrophthalamic acid derivatives, methods of producing same, and herbicides containing same as effective components” (Central Glass Co., Ltd., priority 1994, dated 2002)

Legend:
Type in all cases: in vivo
Set-up in all cases: key: 5: completely killed; 4: seriously injured; 3: considerably injured; 2: somewhat injured; 1: slightly injured; 0: not injured (normally grown)
Settings in all cases: 4 weeks after treatment
paddy rice = experiment: Experiment 1 flooded soil treatment: injury to paddy rice
From the text: (§1) Paddy soil (clay loam) was put into a pot so as to have a surface area of 1/15500 ares. Uniformly mixed seeds of several kinds of weeds, viz., nobie (barnyardgrass, Echinochloa spp.), broad-leaved weeds, hotarui (bulrush, Scirpus juncoides) and tamagayatsuri (small-flowered umbrellaplant, Cyperus difformis), were sown in the surface layer of the soil in each pot, and then paddy rice seedlings at the two- or three-leaved stage were transplanted into each pot to a depth of 2 cm, and water was fed into each pot so as to provide a 3 cm deep water layer on the soil surface. After 3 days, in other words at the initial stage of germination of nobie (barnyardgrass, Echinochloa spp.), a predetermined amount of a selected compound obtained in a manner analogous to Example 8 in the form of diluted aqueous solution was dropped into the water layer in each pot. After that, the pots were kept in a glass chamber to allow the paddy rice and the weeds to grow, and after the lapse of 4 weeks from the treatment with the selected compounds, the herbicidal effects and the degree of injury to the paddy rice were evaluated. In the table, the herbicidal effects and the degree of injury to the paddy rice are indicated by numerical values, which have the following meaning.
(§2) 0: not injured (normally grown)

[1] = test system: nobie (barnyardgrass, Echinochloa spp.); experiment: Experiment 1 flooded soil treatment: nobie
From the text: as §1, §2

broad-leaved weeds = experiment: Experiment 1 flooded soil treatment: broad-leaved weeds
From the text: as §1, §2

[2] = test system: hotarui (bulrush, Scirpus juncoides); experiment: Experiment 1 flooded soil treatment: hotarui
From the text: as §1, §2

[3] = test system: tamagayatsuri (small-flowered umbrellaplant, Cyperus difformis); experiment: Experiment 1 flooded soil treatment: tamagayatsuri
From the text: as §1, §2

rice = experiment: Experiment 2 foliage treatment: rice
Description: (§3) Upon seedling stage (two- or three-leaved stage) of rice, cockspur (Panicum crus-galli), garden radish, aobiyu (slender amaranth, Amaranthus viridis) and mehishiba (henry crabgrass, Digitaria cliaris) which were grown on a cultivated soil put in pots of 1/15500 ares, a selected compound obtained in a manner analogous to Example 8, in suspended wettable powder, was sprayed to each plant. After that, the pots were kept in a glass chamber to allow each plant to grow, and after the lapse of 4 weeks from the treatment with the selected compounds the herbicidal effects were evaluated. The evaluation of the herbicidal effects was similarly conducted as to that of Experiment 1.

[4] = test system: cockspur (Panicum crus-galli); experiment: Experiment 2 foliage treatment: cockspur
Description: as §3

garden radish = experiment: Experiment 2 foliage treatment: garden radish
Description: as §3

[5] = test system: aobiyu (slender amaranth, Amaranthus viridis); experiment: Experiment 2 foliage treatment: aobiyu
Description: as §3

[6] = test system: mehishiba (henry crabgrass, Digitaria cliaris); experiment: Experiment 2 foliage treatment: mehishiba
Description: as §3

[7] = test system: ichibi (velvetleaf, Abutilon theophrasti); experiment: Experiment 3 foliage treatment: ichibi
Description: as §3, with “ichibi (velvetleaf, Abutilon theophrasti), onamomi (heartleaf cocklebur, Xanthium strumarium) (4L stage), noasagao (blue morningglory, Ipomoea indica)” for “rice, cockspur (Panicum crus-galli), garden radish, aobiyu (slender amaranth, Amaranthus viridis)”, “ooinutade (pale smartweed, Persicaria lapathifolia)” for “mehishiba (henry crabgrass, Digitaria cliaris)”, “1/8850” for “1/15500”

[8] = test system: onamomi (heartleaf cocklebur, Xanthium strumarium); experiment: Experiment 3 foliage treatment: onamomi
Description: as §3, with “ichibi (velvetleaf, Abutilon theophrasti), onamomi (heartleaf cocklebur, Xanthium strumarium) (4L stage), noasagao (blue morningglory, Ipomoea indica)” for “rice, cockspur (Panicum crus-galli), garden radish, aobiyu (slender amaranth, Amaranthus viridis)”, “ooinutade (pale smartweed, Persicaria lapathifolia)” for “mehishiba (henry crabgrass, Digitaria cliaris)”, “1/8850” for “1/15500”

[9] = test system: noasagao (blue morningglory, Ipomoea indica); experiment: Experiment 3 foliage treatment: noasagao
Description: as §3, with “ichibi (velvetleaf, Abutilon theophrasti), onamomi (heartleaf cocklebur, Xanthium strumarium) (4L stage), noasagao (blue morningglory, Ipomoea indica)” for “rice, cockspur (Panicum crus-galli), garden radish, aobiyu (slender amaranth, Amaranthus viridis)”, “ooinutade (pale smartweed, Persicaria lapathifolia)” for “mehishiba (henry crabgrass, Digitaria cliaris)”, “1/8850” for “1/15500”

[10] = test system: ooinutade (pale smartweed, Persicaria lapathifolia); experiment: Experiment 3 foliage treatment: ooinutade
Description: as §3, with “ichibi (velvetleaf, Abutilon theophrasti), onamomi (heartleaf cocklebur, Xanthium strumarium) (4L stage), noasagao (blue morningglory, Ipomoea indica)” for “rice, cockspur (Panicum crus-galli), garden radish, aobiyu (slender amaranth, Amaranthus viridis)”, “ooinutade (pale smartweed, Persicaria lapathifolia)” for “mehishiba (henry crabgrass, Digitaria cliaris)”, “1/8850” for “1/15500”

Question: With `COC(=O)C1=C(C(=O)N(C(C)=O)c2cc(SC(C)C(=O)OC)c(Cl)cc2F)CCCC1` (centres unmarked) [compound 20, N-acetyl-N-[4-chloro-2-fluoro-5-(1-methoxycarbonylethylthio)phenyl]-3,4,5,6-tetrahydrophthalamic acid methyl ester] as the compound, how does the “Injury of Paddy” value (paddy rice; 12.5 g/10a) read?
Answer: 0.5

Question: And the “Injury of Paddy” value (paddy rice; 25 g/10a)?
Answer: 0.5

Question: What about the “Herbicidal Effect nobie” value ([1]; 12.5 g/10a) of the same compound?
Answer: 5

Question: What about the “Herbicidal Effect nobie” value ([1]; 25 g/10a) of the same compound?
Answer: 5

Question: What about the “Herbicidal Effect broad-leaved weed” value (broad-leaved weeds; 12.5 g/10a) of the same compound?
Answer: 5

Question: What about the “Herbicidal Effect broad-leaved weed” value (broad-leaved weeds; 25 g/10a) of the same compound?
Answer: 5

Question: What about the “Herbicidal Effect hotarui” value ([2]; 12.5 g/10a) of the same compound?
Answer: 5

Question: And the “Herbicidal Effect hotarui” value ([2]; 25 g/10a)?
Answer: 5

Question: What about the “Herbicidal Effect tamagayatsuri” value ([3]; 12.5 g/10a) of the same compound?
Answer: 5

Question: What about the “Herbicidal Effect tamagayatsuri” value ([3]; 25 g/10a) of the same compound?
Answer: 5

Question: And the “Herbicidal Effect rice” value (rice; 40 g/10a)?
Answer: 1

Question: And the “Herbicidal Effect rice” value (rice; 80 g/10a)?
Answer: 1

Question: What about the “Herbicidal Effect cockspur” value ([4]; 40 g/10a) of the same compound?
Answer: 2

Question: And the “Herbicidal Effect cockspur” value ([4]; 80 g/10a)?
Answer: 2

Question: And the “Herbicidal Effect garden radish” value (garden radish; 40 g/10a)?
Answer: 5

Question: And the “Herbicidal Effect garden radish” value (garden radish; 80 g/10a)?
Answer: 5

Question: What about the “Herbicidal Effect aobiyu” value ([5]; 40 g/10a) of the same compound?
Answer: 5

Question: And the “Herbicidal Effect aobiyu” value ([5]; 80 g/10a)?
Answer: 5

Question: And the “Herbicidal Effect mehishiba” value ([6]; 40 g/10a)?
Answer: 1

Question: And the “Herbicidal Effect mehishiba” value ([6]; 80 g/10a)?
Answer: 1

Question: What about the “Herbicidal Effect ichibi” value ([7]; 4 g/10a) of the same compound?
Answer: 5

Question: What about the “Herbicidal Effect ichibi” value ([7]; 8 g/10a) of the same compound?
Answer: 5

Question: And the “Herbicidal Effect onamomi” value ([8]; 4 g/10a)?
Answer: 4

Question: What about the “Herbicidal Effect onamomi” value ([8]; 8 g/10a) of the same compound?
Answer: 4

Question: What about the “Herbicidal Effect noasagao” value ([9]; 4 g/10a) of the same compound?
Answer: 4

Question: What about the “Herbicidal Effect noasagao” value ([9]; 8 g/10a) of the same compound?
Answer: 5

Question: And the “Herbicidal Effect ooinutade” value ([10]; 4 g/10a)?
Answer: 5

Question: And the “Herbicidal Effect ooinutade” value ([10]; 8 g/10a)?
Answer: 5

Question: How did the “Injury of Paddy” value (paddy rice; 12.5 g/10a) turn out when `CCCOC(=O)C1=C(C(=O)N(C(C)=O)c2cc(SCC(=O)OC)c(Cl)cc2F)CCCC1` [compound 13] was run?
Answer: 0

Question: And the “Injury of Paddy” value (paddy rice; 25 g/10a)?
Answer: 0.5

Question: And the “Herbicidal Effect nobie” value ([1]; 12.5 g/10a)?
Answer: 5

Question: And the “Herbicidal Effect nobie” value ([1]; 25 g/10a)?
Answer: 5

Question: What about the “Herbicidal Effect broad-leaved weed” value (broad-leaved weeds; 12.5 g/10a) of the same compound?
Answer: 5

Question: What about the “Herbicidal Effect broad-leaved weed” value (broad-leaved weeds; 25 g/10a) of the same compound?
Answer: 5

Question: What about the “Herbicidal Effect hotarui” value ([2]; 12.5 g/10a) of the same compound?
Answer: 4

Question: And the “Herbicidal Effect hotarui” value ([2]; 25 g/10a)?
Answer: 4

Question: What about the “Herbicidal Effect tamagayatsuri” value ([3]; 12.5 g/10a) of the same compound?
Answer: 5

Question: What about the “Herbicidal Effect tamagayatsuri” value ([3]; 25 g/10a) of the same compound?
Answer: 5

Question: And the “Herbicidal Effect rice” value (rice; 40 g/10a)?
Answer: 1

Question: And the “Herbicidal Effect rice” value (rice; 80 g/10a)?
Answer: 1

Question: What about the “Herbicidal Effect cockspur” value ([4]; 40 g/10a) of the same compound?
Answer: 2

Question: What about the “Herbicidal Effect cockspur” value ([4]; 80 g/10a) of the same compound?
Answer: 2

Question: And the “Herbicidal Effect garden radish” value (garden radish; 40 g/10a)?
Answer: 5

Question: What about the “Herbicidal Effect garden radish” value (garden radish; 80 g/10a) of the same compound?
Answer: 5

Question: What about the “Herbicidal Effect aobiyu” value ([5]; 40 g/10a) of the same compound?
Answer: 5

Question: And the “Herbicidal Effect aobiyu” value ([5]; 80 g/10a)?
Answer: 5

Question: And the “Herbicidal Effect mehishiba” value ([6]; 40 g/10a)?
Answer: 1

Question: And the “Herbicidal Effect mehishiba” value ([6]; 80 g/10a)?
Answer: 1

Question: What about the “Herbicidal Effect ichibi” value ([7]; 4 g/10a) of the same compound?
Answer: 5

Question: And the “Herbicidal Effect ichibi” value ([7]; 8 g/10a)?
Answer: 5

Question: What about the “Herbicidal Effect onamomi” value ([8]; 4 g/10a) of the same compound?
Answer: 5

Question: And the “Herbicidal Effect onamomi” value ([8]; 8 g/10a)?
Answer: 5

Question: And the “Herbicidal Effect noasagao” value ([9]; 4 g/10a)?
Answer: 5

Question: And the “Herbicidal Effect noasagao” value ([9]; 8 g/10a)?
Answer: 5

Question: What about the “Herbicidal Effect ooinutade” value ([10]; 4 g/10a) of the same compound?
Answer: 5

Question: What about the “Herbicidal Effect ooinutade” value ([10]; 8 g/10a) of the same compound?
Answer: 5
